These results are taken from PMC9321930, “Modelling the Human Blood–Brain Barrier in Huntington Disease” (International Journal of Molecular Sciences, 2022).

In series [1] the test system is all iBMECs. In words: Inhibition of substrate transport by transporter inhibitors, all iBMECs. Type of series: cell-based, human. How it is done:
(§1) The measurement of TEER, transport studies, and the derivation of permeability coefficients were carried out as reported. In each filter, a paracellular marker (radiolabelled sucrose or LY) was added as internal control of the tightness of the monolayer. The amounts of radiotracer and fluorescent tracers were determined by liquid scintillation (Top Count-NXT, Microplate Scintillation and Luminescence counter from Perkin Elmer, Milan, Italy) and fluorescence spectrophotometry (SAFIRE TECAN, Microplate Fluorescence reader, Männedorf, Switzerland), respectively. In efflux and influx transport assays, before the addition of the compounds, filters were pre-incubated for 15 min at 37 °C with or without inhibitors and/or substrates: 2 µM elacridar (PGP inhibition), 2 µM of KO143 (BCRP inhibition), 10 µM JPH203 (LAT-1 inhibition), and 200 µM of phloretin (GLUT inhibition). Each test compound was assayed in triplicates. Transferrin from Human Serum, Alexa Fluor™ 594 Conjugate (T13343 Invitrogen™ from Thermo Fisher, Monza, Italy) was incubated (2.5 µM) in HBSS-20 mM Hepes pH 7.4 containing 1% BSA for 2 h, at 37 °C, and 5% CO2 and on ice at 4 °C. At the end of the incubation, aliquots from both compartments were collected and the fluorescent tracer was quantified.

The conditions of series [2]: Table S4; cited from earlier work.
A short description of series [3]: Transport assay (permeability) across iBMEC_109Q transwell BBB model. Particulars: female, human.
The nature of series [4]: Transport assay (permeability) across iBMEC_71Q transwell BBB model. The settings on record: female, human.
Series [5] in a line: Transport assay (permeability) across iBMEC_33Q transwell BBB model. The settings on record: female, human.
For series [6], the system named is GLUT. The series can be described thus: in vitro. The settings on record: female, human.
Series [7] relates to iBMEC_109Q. In words: Transport assay (permeability) across iBMEC_109Q transwell BBB model. Particulars: for Permeability iBMEC_109Q: Table 1, compound alone, mean ± SE, n > 6, compounds marked ^a calculated from Ptotal.
Series [8] has as its system iBMEC_71Q. The series can be described thus: Transport assay (permeability) across iBMEC_71Q transwell BBB model. The settings on record: for Permeability iBMEC_71Q: Table 1, compound alone, mean ± SE, n > 6, compounds marked ^a calculated from Ptotal.
Series [9] relates to iBMEC_33Q. In words: Transport assay (permeability) across iBMEC_33Q transwell BBB model. The settings on record: for Permeability iBMEC_33Q: Table 1, compound alone, mean ± SE, n > 6, compounds marked ^a calculated from Ptotal.
Series [10] has as its system iBMEC_33Q.
Series [11] has as its system iBMEC_71Q.
In series [12] the test system is iBMEC_109Q.
Series [13] concerns iBMEC_109Q. The series can be described thus: TNFα treatment, inflammatory gene expression (qRT-PCR), iBMEC_109Q. Type of series: cell-based, human. The settings on record: 50 ng/mL TNFα, 48 h, versus untreated cells. How it is done: (§2) To evaluate the self-renewal capacity and the pluripotency as well as the trilineage differentiation potential, mRNA was subjected to the hPSC scorecard assay (Cat. A15872, Thermo Fisher, Monza, Italy) after RNA extraction from iPSC colonies with RNeasy mini kit (Cat. 74106, Qiagen, Hilden, Germany). cDNA was obtained with High-capacity cDNA reverse transcription kit (Cat. 4374966, Thermo Fisher, Monza, Italy). The expression of inflammatory genes after TNFα treatment was evaluated using the TaqMan™ Array Human Inflammation Panel (Cat. 4378722, Applied Biosystem, Foster City, CA, USA). qRT-PCR was performed in QuantStudio 12 K Flex (Thermo Fisher, Monza, Italy). The analysis of the hPSC score was conducted with the hPSC Score Card Panel software.
(§3) To mimic a neuroinflammatory condition, cells in transwells were treated with 50 ng/mL of TNFα for 48 h before RNA extraction.
A general note: In qPCR the cycle at which signal appears reflects the starting amount.

Series [14] relates to iBMEC_71Q. In words: TNFα treatment, inflammatory gene expression (qRT-PCR), iBMEC_71Q. The settings on record: 50 ng/mL TNFα, 48 h, versus untreated cells. Type of series: cell-based, human. How it is done: as §2, §3
For series [15], the system named is iBMEC_33Q. In words: TNFα treatment, inflammatory gene expression (qRT-PCR), iBMEC_33Q. The settings on record: 50 ng/mL TNFα, 48 h, versus untreated cells. Type of series: cell-based, human. On the procedure: as §2, §3
In series [16] the test system is iBMECs 33Q. The series can be described thus: Receptor-mediated transcytosis of fluorescent transferrin, iBMEC 33Q. The settings on record: basal compartment after 2 h, 2.5 µM, mean ± sd. Type of series: in vitro ADME, human. How it is done:
as §1

The subject of series [17] is iBMECs 71Q. The series can be described thus: Receptor-mediated transcytosis of fluorescent transferrin, iBMEC 71Q. The settings on record: for Transferrin transported: 71Q, basal compartment after 2 h, 2.5 µM, mean ± sd. Type of series: in vitro ADME, human. How it is done: as §1
For series [18], the system named is iBMECs 109Q. In words: Receptor-mediated transcytosis of fluorescent transferrin, iBMEC 109Q. Type of series: in vitro ADME, human. Particulars: for Transferrin transported: 109Q, basal compartment after 2 h, 2.5 µM, mean ± sd. How it is done:
as §1

Series [19] relates to rat cerebral microcirculation. Particulars: cited from earlier work.

Where two headings read alike, the source gives them in different places.

For the molecule `Nc1cc(COc2c(Cl)cc(C[C@H](N)C(=O)O)cc2Cl)c2oc(-c3ccccc3)nc2c1` [JPH203], the “Reduction of leucine transport” value in [1] (10 µM JPH203, all models) was “about 80%”.

For `O=C(O)c1cc(=O)c2ccccc2[nH]1` [KYNA, kynurenic acid], in [2], the “Human Kp,uu,CSF” value is recorded as 0.024.

Consider `N[C@@H](Cc1ccc(O)c(O)c1)C(=O)O` [L-DOPA], for which the “Human Kp,uu,CSF” value in series [2] is on record as 0.49.

`N=C(N)NCCC[C@H](N)C(=O)O` [arginine]: the “Human Kp,uu,CSF” value in [2] was 0.28.

As for `CC(NC(C)(C)C)C(=O)c1cccc(Cl)c1` (stereo not drawn) [bupropion], the “Human Kp,uu,CSF” value in series [2] was 1.11.

Regarding `Cn1c(=O)c2c(ncn2C)n(C)c1=O` [caffeine], the “Human Kp,uu,CSF” value in series [2] was 1.00.

Take `NC(=O)N1c2ccccc2C=Cc2ccccc21` [carbamazepine]: the “Human Kp,uu,CSF” value in [2] is given as 0.24.

Regarding `CN(C)CCCC1(c2ccc(F)cc2)OCc2cc(C#N)ccc21` (stereo not drawn) [citalopram], the “Human Kp,uu,CSF” value in series [2] is given as 1.77.

As a reminder, the Papp is a coefficient for how fast a substance crosses the barrier. A low value points to slow passage. Consider `O=C1OC2(c3ccc(O)cc3Oc3cc(O)ccc32)c2ccccc21` [fluorescein], for which the Papp in [3] was 0.8 ± 0.01 ×10⁻⁶ cm/s; in [4], 0.24 ± 0.02 ×10⁻⁶ cm/s; in [5], 0.11 ± 0.01 ×10⁻⁶ cm/s.

Usually Papp A→B stands for the apparent permeability from the apical to the basolateral side of a cell layer. The low end stands for slow passage, the high end for fast passage. Take `OC[C@H]1OC(O)[C@H](O)[C@@H](O)[C@@H]1O` (stereo partly drawn) [glucose]: in series [2], the “Human Kp,uu,CSF” value is 0.65. The apical-to-basolateral permeability (Papp A→B) in series [6] is 6.3 ×10⁻⁶ cm/s.

On to `N[C@@H](CCC(=O)O)C(=O)O` [glutamate], for which the “Efflux Ratio” value in series [7] (109Q, no inhibitor) is on record as 1.3; in series [8] (71Q, no inhibitor), 2.0; in series [9] (33Q, no inhibitor), 1.8. Besides, the “Permeability A-B” value in [7] (109Q, no inhibitor, mean ± SD) is recorded as 7.2 ± 0.7 ×10^−6 cm/s; in [8] (71Q, no inhibitor, mean ± SD), 3.3 ± 0.1 ×10^−6 cm/s; in [9] (33Q, no inhibitor, mean ± SD), 4.1 ± 0.2 ×10^−6 cm/s. Moreover, the “Permeability B-A” value in [7] (109Q, no inhibitor, mean ± SD) is 9.0 ± 0.5 ×10^−6 cm/s; in series [8] (71Q, no inhibitor, mean ± SD), 6.8 ± 0.6 ×10^−6 cm/s; in series [9] (33Q, no inhibitor, mean ± SD) it was 7.5 ± 0.5 ×10^−6 cm/s. Further, the “Permeability iBMEC_109Q” value in series [7] is 7.2 ± 0.7 ×10^−6 cm/s. Also, in [8], the “Permeability iBMEC_71Q” value is given as 3.3 ± 0.1 ×10^−6 cm/s. Also, the “Permeability iBMEC_33Q” value in [9] is 4.1 ± 0.2 ×10^−6 cm/s.

For the molecule `CC(O)C(=O)O` (stereo not drawn) [lactate], the “Permeability iBMEC_33Q” value in series [10] is recorded as 53.8 ± 6.7 ×10^−6 cm/s. Also, the “Permeability iBMEC_71Q” value in series [11] is reported as 53.2 ± 3.6 ×10^−6 cm/s. Further, the “Permeability iBMEC_109Q” value in [12] is given as 52.6 ± 5.7 ×10^−6 cm/s.

In the case of `CC(C)C[C@H](N)C(=O)O` [leucine], the “Human Kp,uu,CSF” value in [2] is recorded as 0.12.

Consider `CN(Cc1cnc2nc(N)nc(N)c2n1)c1ccc(C(=O)N[C@@H](CCC(=O)O)C(=O)O)cc1` [methotrexate], for which the “Human Kp,uu,CSF” value in series [2] is on record as 0.02.

As for `N[C@@H](Cc1ccccc1)C(=O)O` [phenylalanine], in [2], the “Human Kp,uu,CSF” value was 0.28. Moreover, the apparent permeability coefficient (Papp) in series [3] worked out at 30.4 ± 3 ×10⁻⁶ cm/s; in series [4] it was 21.4 ± 1.4 ×10⁻⁶ cm/s; in series [5], 25.8 ± 1.5 ×10⁻⁶ cm/s.

As to `O=C1NC(=O)C(c2ccccc2)(c2ccccc2)N1` [phenytoin], in series [2], the “Human Kp,uu,CSF” value is on record as 0.19. Moreover, the Papp in series [3] amounted to 27.7 ± 1.5 ×10⁻⁶ cm/s; in [4], 20.9 ± 1 ×10⁻⁶ cm/s; in series [5], 18.6 ± 0.2 ×10⁻⁶ cm/s.

By inhibition is commonly meant how much of the control response was suppressed. On to `O=C(CCc1ccc(O)cc1)c1c(O)cc(O)cc1O` [phloretin], for which the inhibition at 200 µM in series [1] (Homo sapiens, 200 µM phloretin, both directions (apical to basal and basal to apical), all iBMECs, read-out: Inhibition of glucose transport) was 50 to 60%.

For the molecule TNFα, the “Upregulation of ICAM-1 expression after TNFα treatment” value in series [13] (109Q) is “about 2 fold”; in series [14] (71Q) it was “about 2 fold”; in series [15] (33Q), 9 fold. The “Upregulation of VCAM1 expression after TNFα treatment” value in series [13] (iBMEC_109Q) was “none”; in series [14] (iBMEC 71Q), “more than 40 fold”; in series [15] (iBMEC 33Q) it was “more than 40 fold”.

As for “Transferrin: Transferrin from Human Serum, Alexa Fluor 594 Conjugate”, the Transferrin transported in [16] (4°C) stood at 2.8 ± 0.4 ng; in series [16] (37°C), 4.1 ± 0.7 ng; in series [17] (4°C), 3.7 ± 0.3 ng; in series [17] (37°C), 7.3 ± 0.4 ng; in [18] (4°C), 4.0 ± 1.0 ng; in series [18] (37°C), 49.0 ± 13.0 ng. In addition, the “Higher level of basal accumulation of transferrin” value in [17] (iBMEC_71Q versus healthy model) is reported as about 2 fold; in [18] (iBMEC_109Q versus healthy model) it was “about 5 fold”.

For the molecule [D-Ala2]deltorphin-II, the “Permeability iBMEC_109Q” value in series [7] was 1.01 ± 0.02 ×10^−6 cm/s. Besides, the “Permeability iBMEC_71Q” value in series [8] is 0.92 ± 0.01 ×10^−6 cm/s. Besides, the “Permeability iBMEC_33Q” value in series [9] is reported as 0.77 ± 0.08 ×10^−6 cm/s.

Turning to lucifer yellow, in series [10], the “Efflux Ratio” value came out at 0.9; the “LY permeability, time course” value is at least 0.5 ×10⁻⁶ cm/s; the “Permeability A-B” value is 0.23 ± 0.02 ×10^−6 cm/s; the “Permeability B-A” value is 0.21 ± 0.04 ×10^−6 cm/s. In addition, the “Permeability iBMEC_33Q, paracellular markers” value in series [10] is 2.3 ± 0.2 x10^-7 cm/s. For the same molecule, in series [11], the “Efflux Ratio” value was determined as 0.9; the “LY permeability, time course” value was at least 0.5 ×10⁻⁶ cm/s; the “Permeability A-B” value is recorded as 0.37 ± 0.03 ×10^−6 cm/s; the “Permeability B-A” value was 0.34 ± 0.06 ×10^−6 cm/s. Besides, in [11], the “Permeability iBMEC_71Q, paracellular markers” value was 3.7 ± 0.3 x10^-7 cm/s. Moreover, the “Permeability P in vivo” value in [19] was 1 − 2 × 10^−7 cm/s. In [12], the “Efflux Ratio” value turned out to be 1.0; the “LY permeability, time course” value is on record as “exceeded 5 × 10^−7 cm/s”; the “Permeability A-B” value is on record as 0.70 ± 0.03 ×10^−6 cm/s; the “Permeability B-A” value was 0.70 ± 0.1 ×10^−6 cm/s. In addition, the “Permeability iBMEC_109Q, paracellular markers” value in series [12] was 7.0 ± 0.3 x10^-7 cm/s.
